Values of other authors in patent US12364689B2, “Dosage regimen for the treatment of cancer” (AstraZeneca AB, priority 2020, dated 2025).

Columns and labels:
ERα receptor [1] = target: T1, ERα receptor (Homo sapiens, UniProt P03372); conditions: in vitro breast cell line experiments; cited from earlier work
T1 sequence (P03372 1-595): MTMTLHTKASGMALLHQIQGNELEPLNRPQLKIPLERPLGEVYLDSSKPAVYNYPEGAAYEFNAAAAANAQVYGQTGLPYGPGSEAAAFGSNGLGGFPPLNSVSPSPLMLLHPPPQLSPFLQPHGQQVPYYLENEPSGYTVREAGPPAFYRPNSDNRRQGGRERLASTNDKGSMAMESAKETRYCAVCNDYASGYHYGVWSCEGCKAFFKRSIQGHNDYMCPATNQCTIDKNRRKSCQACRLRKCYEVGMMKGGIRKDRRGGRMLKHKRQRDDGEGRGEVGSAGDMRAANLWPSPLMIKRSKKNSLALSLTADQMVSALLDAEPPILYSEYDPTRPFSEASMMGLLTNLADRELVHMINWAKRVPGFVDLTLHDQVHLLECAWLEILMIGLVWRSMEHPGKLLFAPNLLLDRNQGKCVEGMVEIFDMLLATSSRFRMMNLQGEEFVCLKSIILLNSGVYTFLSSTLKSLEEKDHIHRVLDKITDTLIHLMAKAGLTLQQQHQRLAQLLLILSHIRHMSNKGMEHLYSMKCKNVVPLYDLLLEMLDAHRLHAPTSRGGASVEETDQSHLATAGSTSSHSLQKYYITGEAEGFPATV

ERα receptor [2] = target: T1, ERα receptor; conditions: 500 mg monthly dose; cited from earlier work

For C[C@]12CC[C@@H]3c4ccc(O)cc4C[C@@H](CCCCCCCCC[S+]([O-])CCCC(F)(F)C(F)(F)F)[C@H]3[C@@H]1CC[C@@H]2O (some centres unmarked) [Fulvestrant, fulvestrant], the “down-regulation of the receptor” value (ERα receptor [1]) is given as “complete down-regulation” and the “turnover of the receptor in patient samples” value (ERα receptor [2]) is given as “less than 50%”.
